Data from patent publication US12171813B2, “Methods of and compositions for reducing gene expression and/or activity” (Christiana Care Gene Editing Institute, Inc., priority 2021, dated 2024).

System: EGFR gene
Assay: Screening of SureKill guide RNAs in the EGFR gene for ability to induce indels
Type: cell-based
Settings: transfections of individual guide RNAs (spCas9 RNP); PDMR human lung adenocarcinoma cells with EGFR L858R; DECODR
Procedure: Human lung squamous cell carcinoma NCI-H1703 clone 44-25 cells were derived from NCI-H1703 cells (#CRL-5889) which were purchased from ATCC (Manassas, VA, USA). NCI-H1703 clone 44-25 cells contains R34G mutation (C 4 G) in NFE2L2 gene. H1703 clone 44-25 cells were cultured in ATCC formulation RPMI-1640 with 10% FBS. T75 flasks were used and cells were split 1:5 upon reaching 90% confluency. Human lung adenocarcinoma cells (Dist. Lot. No. LG0703-F948-PDC) were acquired from the National Institute of Health's National Cancer Institute's Patient-Derived Models Repository (PDMR). This PDMR cell line contains the L858R mutation (T 4 G) in the EGFR gene. The PDMR cells were maintained in Advanced DMEM/F12 media containing 10% FBS, 0.4 μg/mL hydrocortisone, 0.01 μg/mL EGF Recombinant Human Protein, 24 μg/mL adenine, and 2 mM L-Glutamine. T75s were used and cells were split 1:3 upon reaching 90% confluency. All cultures were maintained in cell culture incubators at 37° C. and 5% CO2.
Ribonucleoproteins (RNP) are complexed by incubating 250 pmol of purified synthetic gRNA (Synthego Corporation, Redwood City, CA) with 50 pmol of purified spCas9 (Synthego Corporation, Redwood City, CA) at room temperature in nuclease-free 1× TE buffer for 15 minutes.
Transfections were carried out using the Lonza Nuclefector 4d. Cultures in t75s at 90% confluence were split 1:2 24 hours prior to transfection. RNPs were complexed at 250:50 pmol for 30 minutes prior to transfection, during which time cells were harvested and counted. All reactions were 100 μL and contained 1 e6 cells. Lonza SF solution and Nucleofector program CM-130 were used in all transfections of the H1703 cell line. Lonza SE solution and Nucleofector program CA-137 were used in all transfections of the PDMR. After transfection, 500 μL of media that had been equilibrated to cell culture CO2 and temperature conditions was added to each 100 μL cuvettes. Cuvettes were then placed in the incubator. After 20 minutes, the entire content of each cuvette was seeded into 3 mL of media in a 6 well plate. After 72 hours, samples were dissociated using 200 μL Trypsin 0.25% for 5 minutes. 800 μL culture media was used to quench and split into 1.5 mL tubes each containing 500 μL of the sample. Tubes were spun at 300×g for 5 minutes. One of the tubes was placed in the −20° C. freezer and the other was resuspended in 500 μL of Trizol for RNA extraction and cDNA synthesis.
All sequencing was performed on the Applied Biosystems SeqStudio. The BigDye Terminator v3.1 Cycle Sequencing Kit was used to prepare samples for sequencing. Resulting sequences were analyzed with DECODR to determine indel rates (Bloh et al., CRISPR J. 4:120-31 (2021)).
Human EGFR is a frequently mutated gene that is associated with cancers. One of the most common mutations is L858R which results in the creation of a novel PAM site, making it a targetable sequence by CRISPR. Like the R34G mutation, the CRISPR designed to target the L858R mutation is not highly efficient on its own. By combining the L858R-targeting CRISPR with another CRISPR of high efficiency in a downstream intronic region, exon skipping can be induced, resulting in a higher efficiency of functional knockout than the L858R targeting CRISPR alone. To find a suitable gRNA to pair with the L858R targeting CRISPR, we selected the intron between exons 21 and 22 (FIG. 6). A series of gRNAs were created in this region and screened for their ability to induce indels, a measure of their activity using DECODR (Bloh et al., CRISPR J. 4:120-31 (2021)) (Table 3).
In Table 3, all sequences are listed from 5′ to 3′. Indel percent, a measure of CRISPR activity, is based on transfections of individual guide RNAs. All guide RNAs, with the exception of L858R, were designed in the intron between exons 21 and 22.

Substance: L858R gRNA: guide RNA TCAAGATCACAGATTTTGGG, SEQ ID NO:8, targets EGFR L858R mutation (listed as DNA, chemistry not given here)
- indel %: 73.2%
